Consider five molecules from ChEMBL document CHEMBL1201862, “PubChem BioAssay data set” (2004).

Test systems include MDA-MB-435; HL-60; TK-10; CAKI-1; UACC-62; NCI-H226; K562; DU-145; OVCAR-8; SK-MEL-28; 786-0; UO-31; PC-3; NCI-H23; MDA-MB-231; NCI-H460; MOLT-4; OVCAR-4; Malme-3M.
Holding throughout (assay): NCI tumour cell line growth inhibition, 48 h

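Each compound was tested at five concentrations against cells in 96-well plates for 48 hours. At the GI50, growth is halved.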 Active and inactive are the calls of the source. Rule as the data show it: active = GI50 up to about 1.1 µM and inactive = higher.

As to `COc1ccc(/N=c2/[nH]c(N)c(C(=O)c3ccc(OC)cc3)s2)cc1`, the GI50 in the assay on MDA-MB-435 is 0.0306 µM (active); with HL-60, 0.119 µM (active); in the assay on TK-10, 15.1 µM (inactive); in the assay on CAKI-1 it was 0.313 µM (active); in the assay with UACC-62, 0.481 µM (active); in the assay with NCI-H226, 17.7 µM (inactive). Also, the GI50 in the assay with K562 is 0.0492 µM (active); in the assay on DU-145 it was 0.378 µM (active); with OVCAR-8, 0.537 µM (active); with SK-MEL-28, 4.55 µM (inactive); in the assay on 786-0, 0.441 µM (active); in the assay with UO-31, 0.468 µM (active). Besides, the GI50 was 0.284 µM (active) in the assay on PC-3; 0.508 µM (active) in the assay with NCI-H23; 1 µM (active) in the assay with MDA-MB-231; 0.347 µM (active) in the assay with NCI-H460; 0.0851 µM (active) with MOLT-4; 0.755 µM (active) with OVCAR-4.

Take `Cc1cc2nn(C3CCCO3)nc2cc1C` (stereo unspecified): the GI50 in the assay on MDA-MB-435, in the assay on TK-10, in the assay on CAKI-1, in the assay with UACC-62, in the assay on NCI-H226 and in the assay on K562 was > 100 µM (inactive) throughout. The GI50 in the assay with DU-145, with OVCAR-8, in the assay with 786-0, in the assay with PC-3, in the assay on NCI-H23 and in the assay with MDA-MB-231 was > 100 µM (inactive) each time. In addition, the GI50 in the assay on Malme-3M, in the assay with NCI-H460, with MOLT-4 and in the assay with OVCAR-4 was > 100 µM (inactive) throughout.

Take `CC1=C(C#N)C2C(=C(C)N1)C(N)=Nc1ccccc12` (stereo unspecified): the GI50 was 29.3 µM (inactive) with HL-60; 46.8 µM (inactive) with TK-10; 49.8 µM (inactive) in the assay with CAKI-1; 25.8 µM (inactive) with UACC-62; 30 µM (inactive) with NCI-H226; 88.7 µM (inactive) in the assay on DU-145. Besides, the GI50 in the assay with OVCAR-8 is 55.6 µM (inactive); in the assay with SK-MEL-28, 63.4 µM (inactive); in the assay on 786-0, 43 µM (inactive); with PC-3, 29.6 µM (inactive); with NCI-H23, 55.2 µM (inactive); in the assay on MDA-MB-231, 31.8 µM (inactive). The GI50 with Malme-3M is 37.8 µM (inactive); in the assay on NCI-H460, 44.4 µM (inactive); in the assay on MOLT-4, 33.2 µM (inactive); in the assay on OVCAR-4, 37.4 µM (inactive).

For `C[C@@]1(O)C2CC3CC1(c1ccccc1)CC(/C3=N/O)/C2=N\O` (stereo partly specified), the GI50 in the assay on MDA-MB-435, with HL-60, in the assay with CAKI-1, in the assay with UACC-62, in the assay with NCI-H226 and in the assay on K562 was > 100 µM (inactive) each time. In addition, the GI50 in the assay with DU-145, in the assay on OVCAR-8, in the assay on SK-MEL-28, with 786-0, in the assay on UO-31 and in the assay with PC-3 was > 100 µM (inactive) in each case. The GI50 in the assay with NCI-H23, in the assay with MDA-MB-231, in the assay with Malme-3M, in the assay on NCI-H460, in the assay with MOLT-4 and in the assay on OVCAR-4 was > 100 µM (inactive) throughout.

As for `Cc1c(C(=O)O)n2c(S)nnc2c2ccccc12`, the GI50 in the assay on MDA-MB-435, with HL-60, in the assay on TK-10, in the assay on CAKI-1, in the assay on UACC-62 and in the assay on NCI-H226 was > 100 µM (inactive) in each case. In addition, the GI50 in the assay on K562, with DU-145, in the assay with OVCAR-8, in the assay on SK-MEL-28, in the assay on 786-0 and in the assay with UO-31 was > 100 µM (inactive) throughout. Besides, the GI50 with PC-3, in the assay with NCI-H23, with MDA-MB-231, in the assay with NCI-H460, in the assay with MOLT-4 and in the assay with OVCAR-4 was > 100 µM (inactive) in each case.
